Assay [1] relates to chronic dermatitis models. The note with it: J. Pharmacol. Exp. Ther., 1998, 287, p. 705; cited from earlier work.
For assay [2], the system named is delayed-type allergic reaction in the skin. As to conditions: animal model; Eur. J. Pharmacol., 2002, 446: 195; cited from earlier work.
The test system of assay [3] is dermatitis induced by repeated application of oxazolone. Kind of assay: Inhibitory effects on the increase of ear thickness in a mouse model of dermatitis induced by repeated application of oxazolone. As to conditions: 28th day, dose 50 μg/site/time. The assay is classed as in vivo, BALB/c mice. Here is the method:
Six-week-old BALB/c mice (male, Charles River Japan, Inc.) were used for the experiment. […] The mice were placed in plastic cages (6 mice per cage) in a breeding room which was kept at a room temperature (19 to 25° C.) and a humidity of 30 to 70% and was illuminated for 12 hours a day (from 7:00 a.m. to 7:00 p.m.). The mice were allowed to freely access commercially available pellets and water.
The experiment was performed according to a method by Kitagaki et al. (J. Invest. Dermatol., […], 105: 749) with small modification.
As an antigen solution, Oxazolone (Sigma-Aldrich) was dissolved in acetone (Kanto Kagaku) to prepare 0.5 weight/volume % of oxazolone-acetone solution. Compound (I) was dissolved in the antigen solution at 5 weight/volume % to prepare a Compound (I)-dissolving antigen solution. BALB/c mice were each applied with 10 μL of the antigen solution to the ear for sensitization. […] On the 28th day when chronic dermatitis symptoms were observed, ear thickness was measured with a dial thickness gauge (Ozaki Seisakusho). The inhibition ratio (%) against the increase of ear thickness was calculated using the following: Inhibition ratio (%)=[{(value in solvent administration group)−(value in Compound (I) administration group)}/{(value in solvent administration group)−(value in non-administration group)}]×100

The test system of assay [4] is oxazolone-induced ear swelling. In words: Inhibitory effects on oxazolone-induced ear swelling in mice. In kind it is in vivo, BALB/c mice. The note with it: dose 100 μg/site, epicutaneous. The protocol:
Six-week-old BALB/c mice (male, Charles River Japan, Inc.) were used for the experiment. […] The mice were placed in plastic cages (6 mice per cage) in a breeding room which was kept at a room temperature (19 to 25° C.) and a humidity of 30 to 70% and was illuminated for 12 hours a day (from 7:00 a.m. to 7:00 p.m.). The mice were allowed to freely access commercially available pellets and water. As an antigen solution, Oxazolone (Sigma-Aldrich) was dissolved in acetone (Kanto Kagaku) to prepare 0.5 weight/volume % of oxazolone-acetone solution. Compound (I) was dissolved in the antigen solution at 5 weight/volume % to prepare a Compound (I)-dissolving antigen solution. BALB/c mice were each applied with 100 μL of the antigen solution to the shaved abdomen for sensitization. Mice were shaved on abdomen on the previous day of the sensitization. […] Ear thickness was measured with a dial thickness gauge (Ozaki Seisakusho) just before and 24 hours after the application for inducing .the reaction, and the difference in the thickness was used as an indication of ear swelling. The inhibition ratio (%) against ear swelling was calculated using the following: Inhibition ratio (%)=[{(value in solvent administration group)−(value in Compound (I) administration group)}/{(value in solvent administration group)−(value in non-administration group)}]×100

Data on two molecules can be found in US20060173028A1, “Therapeutic and/or preventive agent for chronic skin disease” (Kyowa Hakko Kogyo Co., Ltd., priority 2003, published 2006).

SMILES strings stand for the structures. Marks after values point to notes of the source that are not given here.

Take `COc1ccc([C@]2(C#N)CC[C@@H](C(=O)O)CC2)cc1OC1CCCC1` [SB207499]: the “Therapeutic effects on chronic dermatitis models” value in assay [1] is recorded as “exhibit therapeutic effects on chronic dermatitis models”. Moreover, the “Effect on delayed-type allergic reaction in the skin” value in assay [2] was “inhibit a delayed-type allergic reaction in the skin”.
As to `COc1ccc(C(=O)Cc2c(Cl)cncc2Cl)c2c1OC1(CCCC1)O2` [Compound (I), 7-[2-(3,5-dichloro-4-pyridyl)-1-oxoethyl]-4-methoxy-spiro[1,3-benzodioxol-2,1′-cyclopentane]], the Auricle thickness in assay [3] (repeated application to the ear day 7 to 28, male BALB/c mice) is 67** ×0.01 mm. In assay [3] (repeated application, relative to solvent and non-administration groups), the “Inhibition Ratio against the increase of ear thickness” value is 41%. Besides, the “Auricular Edema” value in assay [4] (difference in ear thickness just before and 24 hours after induction, male BALB/c mice) is 16** ×0.01 mm. Further, in assay [4] (24 hours after induction, relative to solvent and non-administration groups), the “Inhibition Ratio against ear swelling” value is recorded as 64%.
